From patent US9278925B2, “Substituted 3-(biphenyl-3-yl)-4-hydroxy-8-methoxy-1-azaspiro[4.5]dec-3-en-2-one” (BAYER INTELLECTUAL PROPERTY GMBH, priority 2011, dated 2016)
“And” between values parts separate entries of the source, which are not always exact repeats. Identical values can stand only once. Like-named read-outs stand apart in the source and are kept apart here.

Experiments:
[1] = Octanol/water distribution coefficient (logP/D), isocratic HPLC method; assay type: physicochemical; conditions: octanol/water, pH 7.4; pH7.4
Text: Assay for Determining the Octanol/Water Distribution Coefficient (logP/D): The distribution coefficient octanol/water P or D is a key parameter for estimating membrane penetration and permeability. It is defined as the ratio of the equilibrium concentrations of a substance in the two-phase system octanol/water. [formula] P=partition D=distribution c(octanol)=concentration of the substance in the octanol phase c(water)=concentration of the substance in the aqueous phase It is usually stated in form of the decadic logarithm (logP or logD). logP describes the distribution behaviour of a substance exclusively present in its neutral form. logD describes the distribution behaviour of a substance at a certain pH; depending on the ionisation constant pKa of the substance, some of the substance may be present in ionic form, and some in neutral form. The logP/D of the active compounds was determined using an isocratic HPLC method (HPLC=high performance liquid chromatography) (literature: OECD Guideline for Testing of Chemicals No. 117). The method is based on the correlation of the HPLC retention time of the test substance to that of reference substances with known distribution coefficients. […] The nine reference substances were dissolved individually in methanol. 100 μl each of the stock solutions were added to an HPLC vial and mixed with 300 μl of water. [table] A formamide solution was used to determine the hold-up time. To this end, 7 mg of formamide were dissolved in 10 ml of methanol. 100 μl of this stock solution were mixed with 500 μl of methanol and 200 μl of water. […] [table] [table] Injection Protocol: formamide, references, test substance 1, test substance 2, . . . , formamide, references. Evaluation of the retention times was carried out in a diode array detector (DAD) at 200-400 nm Via the molecular mass, the identity of the test substance was checked using the downstream mass spectrometer. The HPLC run was evaluated using the Waters software Masslynx 4.1. The logP/D values were calculated using the software “POW Determination” (proprietary development).

[2] = Maximum tolerated dose (MTD) in female nude mice; assay type: in vivo, mouse; conditions: for Deaths: 21 days; for MTD at 21 days: female, NMRI-nude (nu/nu), mouse, in vivo, administration once per day
Experimental: To this end, initially the maximum tolerable dose (MTD) was determined using the following protocol:
The MTD was defined as the highest dose which could be administered without any animal dying during the treatment phase, and without any body weight loss of more than 10% compared to the initial weight.
(§1) Administration route: oral
• (Solutol HS15: polyoxyethylene ester of 12-hydroxystearic acid) Administration volume: 10 ml/kg: Protocol: see Table 7
The treatment phase was followed by an observation phase of 21 days.

[3] = Plasma protein binding by equilibrium dialysis; assay type: in vitro ADME
Experimental: The binding of test substances to plasma proteins is determined by equilibrium dialysis by means of the Ht-dialysis apparatus (96-well) made of Teflon and a semipermeable membrane (regenerated cellulose, MWCO 12-14K). This separates 150 μl each of a plasma side and a buffer side (50 mM phosphate buffer). The test substance is added in 2 concentrations (usually 3 and 0.3 μM) to the plasma side and binds to plasma proteins. The unbound fraction of the test substance passes through the membrane and is distributed on either side until equilibrium is established (after approx. 6-8 h at 37° C.). The substance concentration on the buffer side and the plasma side is determined by LC-MS analysis. For this, both sides are brought by dilution with buffer or plasma to the same matrix (10% plasma) and then precipitated with methanol. The free (unbound) fraction (fu) is calculated from the quotient of the buffer and plasma concentration. Stability tests and recovery tests are run concurrently as controls. In addition, the substance in buffer is dialysed against buffer, to check the nonspecific binding to apparatus and membrane and establishment of equilibrium. Because during incubation the osmotic pressure of the plasma proteins leads to dilution of the plasma (volume shift), this possible error is determined by weighing blank plasma samples and is included in the calculation of fu. Establishment of equilibrium and plasma stability should have a value not lower than 80% and the recovery should be at least 30%. A free fraction of <1% is regarded as high, between 1 and 10% as moderate and >10% as low plasma protein binding.

[4] = Prediction of human pharmacokinetic parameters and human therapeutic dosage (single species scaling from rat); conditions: human, plasma; for AUC: read-out: calc. AUC (human); for clearance: predicted (fu-corrected) from rat PK, read-out: pred. CL (human) (converted)
Experimental: The human pharmacokinetic (PK) parameters (Table 9) were predicted based on the in vivo PK parameters obtained for rats (single species scaling), taking into account the interspecies differences in the free fraction (fu) in the plasma. The effective AUC (area under curve) was determined based on the measured plasma concentration time profile for in vivo efficacy in the PC3 tumour model of the mouse (nu/nu mouse). The therapeutic human dosage was determined using the predicted human clearance (CL), assuming 100% bioavailability (F=1) and using the effective AUC in the animal model according to the formula below: […]

[5] = test system: human PC-3 cells; conditions: for Deaths / T/C: 2 administrations per day; for T/C: final tumour weight; for tolerability (good: body weight change <=minus 10% and 100% survival): administration 2 times per day
Experimental: Xenograft models in immunosuppressed mice were used to determine the antitumour activity in living organisms.
Use was made primarily of a prostate carcinoma model with hormone-independent human PC-3 cells in male nude mice (NMRI-nude (nu/nu) mice, Taconic M&B A/S). To this end, 3 million tumour cells (suspended in medium+Matrigel 1:1, final 0.1 ml) were injected subcutaneously into the side of each animal. When the tumours extended to an area of 20-30 mm^2, the mice were randomized into therapy groups and therapy was initiated. […] At this point in time, the experiment was terminated in all groups and the prepared tumours were weighed.
The T/C value was calculated as primary success parameter using the effect on the final tumour weight: mean tumour weight in the treatment group divided by mean of the tumour weight in the vehicle group.
as §1
Vehicle: PEG400/ethanol/Solutol HS 15 (70/5/25, v/v/v)
Administration volume: 10 ml/kg
Number of mice: see Table 8

[6] = Effective AUC from plasma concentration time profile in the PC3 tumour model; assay type: in vivo, mouse; conditions: nu/nu, plasma, oral, read-out: ther. AUC (mouse)
Experimental: The human pharmacokinetic (PK) parameters (Table 9) were predicted based on the in vivo PK parameters obtained for rats (single species scaling), taking into account the interspecies differences in the free fraction (fu) in the plasma. The effective AUC (area under curve) was determined based on the measured plasma concentration time profile for in vivo efficacy in the PC3 tumour model of the mouse (nu/nu mouse).

[7] = test system: human ACC1; experiment: Human ACC1 enzyme assay (ADP-Glo); assay type: biochemical; conditions: for Ratio IC50s ACC2/ACC1 (respective measurement): pairwise, same dilution series
Experimental: (§2) Typical concentrations were in the range of 1.75 μl.

[8] = target: human ACC1 (Homo sapiens, UniProt Q13085); experiment: Human ACC1 enzyme assay (ADP-Glo); assay type: biochemical; conditions: individual measurement (measurement no./preparation no. in table); read-out: ACC 1 IC50
Experimental: as §2

[9] = 100 mg/kg oral, 1 administration per day
[10] = human plasma, read-out: fu [%] (human)
[11] = mouse plasma, read-out: fu [%] (mouse)
[12] = rat plasma, read-out: fu [%] (rat)
[13] = from mouse dosage 80 mg/kg 2 × per day
[14] = dosage (mouse) 80 mg/kg 2 × per day

| Structure (SMILES) | chromatographic logP [1] | fraction unbound [3, 10] | fraction unbound [3, 11] | fraction unbound [3, 12] | AUC [4, 13] [µg·h/mL] | clearance [4] [mL/h/kg] | tolerability (good: body weight change <=minus 10% and 100% survival) ([5]; 80 mg/kg) | AUC [6, 14] [µg·h/mL] | Selectivity ACC1 vs. ACC2 (mean of the individual measurements ± standard deviation) [7] | Ratio IC50s ACC2/ACC1 (respective measurement) [7] | other results |
| --- | --- | --- | --- | --- | --- | --- | --- | --- | --- | --- | --- |
| COC[C@]1(OC)CC[C@@]2(CC1)NC(=O)C(c1cc(-c3ccc(Cl)c(F)c3)ccc1C)=C2O [Example 1-4, (5r,8r)-3-(4′-Chloro-3′-fluoro-4-methylbiphenyl-3-yl)-4-hydroxy-8-methoxy-8-(methoxymethyl)-1-azaspiro[4.5]dec-3-en-2-one] | 2.38 | 0.0037 | 0.0217 | 0.0021 | 4130 | 3 | good tolerability | 712 |  |  | Deaths ([2]; 25 mg/kg oral, 2 administrations per day): 0 of 4; Deaths ([2]; 50 mg/kg oral, 2 administrations per day): 0 of 4; Deaths ([2]; 75 mg/kg oral, 2 administrations per day): 0 of 4; Deaths [2, 9]: 0 of 4; Deaths ([2]; 100 mg/kg oral, 2 administrations per day): 0 of 4; MTD ([2]; 21-day treatment, administration twice per day, oral): higher than 100 mg/kg; MTD at 21 days ([2]; 21-day treatment, oral): > 100 mg/kg; Deaths ([5]; 80 mg/kg oral, 17 days): 0 of 10; T/C ([5]; 80 mg/kg oral, 17 days): 0.29 |
| CO[C@]1(C(F)(F)F)CC[C@]2(CC1)NC(=O)C(c1cc(-c3ccc(Cl)cc3)ccc1C)=C2O [Example 1-1, (5r,8r)-3-(4′-Chloro-4-methylbiphenyl-3-yl)-4-hydroxy-8-methoxy-8-(trifluoromethyl)-1-azaspiro[4.5]dec-3-en-2-one] | 2.44 | 0.002 | 0.0082 |  | 1160 | 2 | good tolerability | 289 |  |  | Deaths ([2]; 12.5 mg/kg oral, 1 administration per day): 0 of 4; Deaths ([2]; 25 mg/kg oral, 1 administration per day): 0 of 4; Deaths ([2]; 50 mg/kg oral, 1 administration per day): 1 of 4; Deaths ([2]; 75 mg/kg oral, 1 administration per day): 0 of 4; Deaths [2, 9]: 0 of 4; MTD at 21 days ([2]; 21-day treatment, oral): > 100 mg/kg; Deaths ([5]; 80 mg/kg oral, 15 days): 0 of 10; T/C ([5]; 80 mg/kg oral, 15 days): 0.34 |
| COC[C@H]1CC[C@]2(CC1)NC(=O)C(c1cc(-c3ccc(Cl)cc3)ccc1C)=C2O [V.3-b, (5s,8s)-3-(4′-Chloro-4-methylbiphenyl-3-yl)-4-hydroxy-8-(methoxymethyl)-1-azaspiro[4.5]dec-3-en-2-one] | 2.5 | 0.0036 | 0.109 | 0.0779 |  |  |  |  | 6.4 | 6.4 |  |
| COC[C@H]1CC[C@]2(CC1)NC(=O)C(c1cc(-c3ccc(Cl)c(F)c3)ccc1C)=C2O [V.4-b, (5s,8s)-3-(4′-Chloro-3′-fluoro-4-methylbiphenyl-3-yl)-4-hydroxy-8-(methoxymethyl)-1-azaspiro[4.5]dec-3-en-2-one] | 2.57 | 0.0141 | 0.0176 | 0.0011 |  |  |  |  | 15.2 | 15.2 | IC50 [8]: 73 nM; fu ratio mouse/human ([3]; mouse and human, plasma, Table 5): 1 |
| CO[C@]1(C(F)(F)F)CC[C@]2(CC1)NC(=O)C(c1cc(-c3ccc(Cl)c(F)c3)ccc1C)=C2O [Example 1-2, (5r,8r)-3-(4′-Chloro-3′-fluoro-4-methylbiphenyl-3-yl)-4-hydroxy-8-methoxy-8-(trifluoromethyl)-1-azaspiro[4.5]dec-3-en-2-one] | 2.45 | 0.0026 | 0.014 |  | 842 | 9 | good tolerability | 156 |  |  | AUC ([4]; from mouse dosage 40 mg/kg 2 × per day): 355 µg·h/mL; Deaths ([5]; 40 mg/kg oral, 17 days): 0 of 9; T/C ([5]; 40 mg/kg oral, 17 days): 0.44; tolerability (good: body weight change <=minus 10% and 100% survival) ([5]; 40 mg/kg): good tolerability; Deaths ([5]; 80 mg/kg oral, 17 days): 0 of 9; T/C ([5]; 80 mg/kg oral, 17 days): 0.28; AUC ([6]; dosage (mouse) 40 mg/kg 2 × per day): 66 µg·h/mL |
| Cc1ccc(-c2ccc(Cl)c(F)c2)cc1C1=C(O)[C@]2(CC[C@](O)(C(F)(F)F)CC2)NC1=O [V.2-c, (5r,8r)-3-(4′-Chloro-3′-fluoro-4-methylbiphenyl-3-yl)-4,8-dihydroxy-8-(trifluoromethyl)-1-azaspiro[4.5]dec-3-en-2-one] | 1.3 |  |  |  |  |  |  |  |  |  |  |
| Cc1ccc(-c2ccc(Cl)cc2)cc1C1=C(O)[C@]2(CC[C@](O)(C(F)(F)F)CC2)NC1=O [V.1-c, (5r,8r)-3-(4′-Chloro-4-methylbiphenyl-3-yl)-4,8-dihydroxy-8-(trifluoromethyl)-1-azaspiro[4.5]dec-3-en-2-one] | 1.6 |  |  |  |  |  |  |  |  |  |  |
| COC[C@]1(OC)CC[C@@]2(CC1)NC(=O)C(c1cc(-c3ccc(Cl)cc3)ccc1C)=C2O [Example 1-3, (5r,8r)-3-(4′-Chloro-4-methylbiphenyl-3-yl)-4-hydroxy-8-methoxy-8-(methoxymethyl)-1-azaspiro[4.5]dec-3-en-2-one] | 2.3 | 0.0041 | 0.038 |  |  |  |  |  | 47.0 ± 2.1 | 49.0 and 44.9 | IC50 [8]: 165 nM and 146 nM |
